Assays:
[1] = test system: MERTK-expressing M1 macrophages; test: Macrophage viability assay, M1; conditions: 4 days of treatment in differentiating medium
Procedure: Macrophage Viability Assay
(§1) Peripheral blood mononuclear cells (PBMCs) were prepared from buffy coats of healthy donors by Histopaque-1077 (Sigma, 10771) density gradient centrifugation at 250×g at room temperature for 30 min. The intermediate layer containing PBMCs was collected and cells were washed with PBS/2 mM EDTA three times. Human monocytes were isolated from PBMCs by magnetic separation using human Classical Monocyte Isolation Kit (Miltenyi, 130-117-337) according to the manufacturer's instructions. Eighty thousand monocytes per well were cultured on 96-well plates in 150 μL PBMC medium (RPMI 1640 medium (Gibco, 11875093) containing 10% human AB serum, 10% FBS, L-glutamine, penicillin, and streptomycin) at 37° C. with 5% CO2. Monocytes were treated with GM-CSF (20 ng/mL; Biolegend, 766102) or M-CSF (50 ng/mL; Biolegend, 574804) for 8 days to differentiate to M1 or M2 macrophages, respectively. […] On day 4, 100 μL of CellTiter-Glo 2.0 Cell Viability Assay reagent (Promega, G9241) was added to each well, incubated for 10 mins and the luminescence signal was detected with a GloMax Discover Microplate Reader (Promega). The mean relative luminometer units (RLU) from duplicate wells were plotted with GraphPad Prism.

[2] = test system: MERTK-expressing M2 macrophages; test: Macrophage viability assay, M2; conditions: 4 days of treatment in differentiating medium
Procedure: Macrophage Viability Assay
as §1

CCCCNc1ncc2c(-c3ccc(S(=O)(=O)N4CCOCC4)cc3)nn(C3CCC(O)CC3)c2n1 (centres unmarked) [UNC1062, reference compound]
viability of M1 macrophages (CellTiter-Glo 2.0) [1]: neither z10 nor z10-MMAE nor z10-SN-38 nor the MERTK inhibitor UNC1062 affect the viability | viability of M2 macrophages (CellTiter-Glo 2.0) [2]: neither z10 nor z10-MMAE nor z10-SN-38 nor the MERTK inhibitor UNC1062 affect the viability

— patent US11242407B2, “High-affinity anti-MERTK antibodies and uses thereof” (Rgenix, Inc., priority 2019, dated 2022)
